Data on 32 molecules can be found in ChEMBL document CHEMBL3046205, “4-pyridyl carbonyl and related compounds as thrips lures: effectiveness for onion thrips and new zealand flower thrips in field experiments” (2007).

Holding throughout (format): functional
In assay [1] the test system is Thrips obscuratus. The assay can be described thus: Thrips luring activity against female New Zealand Thrips obscuratus (flower thrips) assessed as ratio of thrips in baited traps to unbaited traps during field trapping study.
In assay [2] the test system is Thrips tabaci. Put plainly: Thrips luring activity against female Thrips tabaci (onion thrips) assessed as ratio of thrips in baited traps to unbaited traps during field trapping study.
In assay [3] the test system is Thrips obscuratus. Put plainly: Thrips luring activity against male New Zealand Thrips obscuratus (flower thrips) assessed as ratio of thrips in baited traps to unbaited traps during field trapping study.

As to `CC(=O)c1ccccc1N` [2-AMINOACETOPHENONE], the figures for the Ratio in assay [1], in assay [2] and in assay [3] were 20.7, 6 and 26.7, respectively.

As for `OCCc1ccncc1` [4-(2-HYDROXYETHYL)PYRIDINE], the Ratio was 0 in assay [1], 1.3 in assay [2] and 0 in assay [3].

Consider `O=Cc1ccncc1` [4-FORMYLPYRIDINE], for which the Ratio came to 7.9 in assay [1], 1.6 in assay [2] and 4.9 in assay [3].

For `CC(=O)/C=C/C1C(C)=CCCC1(C)C` (stereo not drawn) [ALPHA-IONONE], the Ratio in assay [1] was determined as 1.8; in assay [2], 1.3; in assay [3], 0.

`COc1ccc(C=O)cc1` [ANISALDEHYDE]: the Ratio in assay [1] was 26.2; in assay [2] it was 4; in assay [3], 22.6.

Take `O=Cc1ccccc1` [BENZALDEHYDE]: the Ratio came out at 5 in assay [1], 4 in assay [2] and 3.6 in assay [3].

`CC(=O)/C=C/C1=C(C)CCCC1(C)C` [BETA-IONONE]: the Ratio in assay [1] is on record as 1.8; in assay [2], 2.6; in assay [3] it was 3.8.

Turning to `ClC(Cl)Cl` [CHLOROFORM], the Ratio in assay [1] was found to be 0; in assay [2] it was 1.1; in assay [3], 10.1.

As to `CC/C=C\CC1=C(C)CCC1=O` [CIS-JASMONE], the Ratio in assay [1] is on record as 42.1; in assay [2] it was 1.2; in assay [3], 24.5.

As for `CCC(=O)c1ccncc1` [ETHYL 4-PYRIDYLKETONE], the Ratio in assay [1] was 19.4; in assay [2], 13.5; in assay [3] it was 0.

For `CCOC(=O)c1ccccc1N` [ETHYL ANTHRANILATE], the Ratio in assay [1] came out at 1.6; in assay [2], 1.1; in assay [3], 0.6.

With `CCOC(=O)c1ccccc1` [ETHYL BENZOATE], the figures for the Ratio in assay [1], in assay [2] and in assay [3] were 35.4, 2.1 and 24.8, respectively.

On to `CCOC(=O)c1ccncc1` [ETHYL ISONICOTINATE], for which the figures for the Ratio in assay [1], in assay [2] and in assay [3] were 31.6, 30.8 and 28.5, respectively.

In the case of `CCOC(=O)C1CCNCC1` [ETHYL ISONIPECOTATE], the values for the Ratio in assay [1], in assay [2] and in assay [3] were 0, 4 and 0, respectively.

In the case of `CCOC(=O)c1cccnc1` [ETHYL NICOTINATE], the values for the Ratio in assay [1], in assay [2] and in assay [3] were 157.6, 3.1 and 84.8, respectively.

For the molecule `CCOC(=O)c1ccccn1` [ETHYL PICOLINATE], the Ratio in assay [1] is reported as 4.1; in assay [2] it was 2.8; in assay [3], 5.9.

For `CCOC(=O)c1ccccc1O` [ETHYL SALICYLATE], the Ratio is on record as 32.6 in assay [1], 3 in assay [2] and 48.5 in assay [3].

As for `CCOC(=O)c1ccnc(Cl)c1` [ETHYL-2-CHLOROPYRIDINE-4-CARBOXYLATE], the Ratio worked out at 15.1 in assay [1], 1.7 in assay [2] and 19.3 in assay [3].

For the molecule `CCCCCCOC(=O)c1ccncc1` [ISONICOTINIC ACID HEXYL ESTER], the Ratio in assay [1] is 0; in assay [2] it was 1.2; in assay [3] it was 0.

With `N#Cc1ccncc1` [ISONICOTINONITRILE], the Ratio in assay [1] was 0; in assay [2], 2.4; in assay [3] it was 19.9.

For `CC(C)OC(=O)c1ccncc1` [ISOPROPYL ISONICOTINATE], the Ratio amounted to 9 in assay [1], 8.8 in assay [2] and 0 in assay [3].

On to `CC(=O)c1ccncc1` [METHYL 4-PYRIDYLKETONE], for which the Ratio in assay [1] is given as 0; in assay [2] it was 7.6; in assay [3] it was 10.3.

For `COC(=O)c1ccccc1N` [METHYL ANTHRANILATE], the Ratio in assay [1] is given as 28.3; in assay [2] it was 3.5; in assay [3], 22.1.

Take `COC(=O)c1ccccc1` [METHYL BENZOATE]: the Ratio in assay [1] came out at 49.1; in assay [2], 6.6; in assay [3] it was 50.5.

On to `COC(=O)c1ccncc1` [METHYL ISONICOTINATE], for which the Ratio in assay [1] was found to be 44.1; in assay [2] it was 18.9; in assay [3] it was 5.1.

Consider `CC/C=C\CC1C(=O)CCC1CC(=O)OC` (stereo unspecified) [METHYL JASMONATE], for which the figures for the Ratio in assay [1], in assay [2] and in assay [3] were 0.8, 0.7 and 0.9, respectively.

On to `COC(=O)c1ccccc1O` [METHYL SALICYLATE], for which the Ratio is given as 24.8 in assay [1], 4 in assay [2] and 13.3 in assay [3].

`CCCCCCCCCCOC(=O)c1ccncc1` [N-DECYL ISONICOTINATE]: the Ratio in assay [1] is recorded as 14.9; in assay [2], 6.8; in assay [3], 0.

For the molecule `CCCOC(=O)c1ccncc1` [N-PROPYL ISONICOTINATE], the figures for the Ratio in assay [1], in assay [2] and in assay [3] were 9, 15.4 and 0, respectively.

In the case of `OCCc1ccccc1` [PHENYLETHYL ALCOHOL], the Ratio in assay [1] is 9.8; in assay [2], 3.8; in assay [3], 9.5.

In the case of `c1cc(C2OCCO2)ccn1` [PYRIDINE, 4-(1,3-DIOXALAN-2-YL)], the Ratio is on record as 16.6 in assay [1], 5.3 in assay [2] and 20.4 in assay [3].

With `O=Cc1ccccc1O` [SALICYLADEHYDE], the Ratio is listed as 20.7 in assay [1], 1.9 in assay [2] and 15.7 in assay [3].
